Data on 103 compounds can be found in PubChem BioAssay AID1996.

Molecules are shown by their SMILES. In brackets after ≈: the same amount, converted by molar mass.

The conditions of the data set: buffer; pH 7.4; 200.0 µM.
By solubility (kinetic) is commonly meant the concentration staying in solution when a stock, usually in DMSO, is diluted into the medium. Compound `COc1ccccc1NC(=O)CC(=O)c1cccc([N+](=O)[O-])c1` showed a kinetic solubility of 2.9 µg/mL (≈ 9.23 µM).
Under `Cc1cccc(N2CC(C)Cn3c2nc2c3c(=O)[nH]c(=O)n2C)c1` (stereo not drawn) stands 27 µg/mL (≈ 83 µM); under `O=C1Nc2ccccc2OCc2c1cccc2[N+](=O)[O-]`, 3.9 µg/mL (≈ 14.4 µM); under `O=C(Nc1cc(C(F)(F)F)ccc1N1CCOCC1)c1cnccn1`, 1.1 µg/mL (≈ 3.12 µM).
In the case of `Cc1ccc(-c2csc(NC(=O)c3c(C)noc3C)n2)cc1`, the kinetic solubility was found to be 6.4 µg/mL (≈ 20.4 µM).
Under `COc1cc(S(=O)(=O)NCc2ccc3c(c2)OCO3)c(OC)cc1C` stands 53.9 µg/mL (≈ 148 µM); under `N#Cc1ccc(S(=O)(=O)N2CCc3[nH]c4ccc(F)cc4c3C2)cc1`, < 0.3 µg/mL; under `NC(=O)COC(=O)CC12CC3CC(CC(Br)(C3)C1)C2`, > 49.5 µg/mL.
Take `CC(=O)Nc1ccc(OCc2cccc3ccccc23)cc1`: the kinetic solubility was < 0.6 µg/mL.
`CC(=O)Nc1ccc(N=c2cc([N+](=O)[O-])cc(Cl)n2O)cc1` returned a solubility (kinetic) of 29 µg/mL (≈ 89.9 µM).
With `Cn1c(C2=C(O)CN(c3ccccc3)C2=N)nc2ccccc21` the figure was 44.5 µg/mL (≈ 146 µM).
Under `CCn1c(/C=C/c2ccccc2Cl)nc2ccccc2c1=O` stands 1.7 µg/mL (≈ 5.47 µM); under `O=C(OCC(=O)c1ccc[nH]1)c1ccc(C(F)(F)F)cc1`, 6.2 µg/mL (≈ 20.9 µM).
Regarding `O=C(c1cc(-c2cccc(Cl)c2)on1)N1CCCCCC1`, the solubility (kinetic) worked out at 14 µg/mL (≈ 45.9 µM). This solubility kinetic is about 2.3-fold higher than that of the compound before.
With `O=C(NCCOc1ccccc1)c1ccccc1Cl` the figure was > 41.4 µg/mL; with `Cc1cccc(C2C3=C(CCCC3=O)N=C3c4ccccc4C(=O)C32)c1` (stereo not drawn), 2.3 µg/mL (≈ 6.74 µM).
On to `COc1ccc(-c2cc(C(=O)Nc3ccc(C)c(C)c3)no2)cc1`, for which the kinetic solubility is < 0.3 µg/mL.
Under `NC(=O)NC(=O)COC(=O)/C=C/c1cccc(Br)c1` stands 0.4 µg/mL (≈ 1.22 µM).
With `O=C(CSCc1ccccc1Br)Nc1ccccc1` the figure was 29.5 µg/mL (≈ 87.7 µM); with `CC(C)c1ccc(CN2C(=O)c3ccccc3S2(=O)=O)cc1`, 1.2 µg/mL (≈ 3.8 µM); with `Cc1c(Cl)cccc1NC(=O)CCN1CCOCC1`, > 42.4 µg/mL.
As to `Cc1cc(C)c(NC(=O)CCCN2CCCC2)c(C)c1`, the solubility (kinetic) is > 41.2 µg/mL.
Compound `COc1ccc(CN(C(=O)/C=C/c2ccco2)C2CCS(=O)(=O)C2)cc1` (stereo not drawn) returned a kinetic solubility of 44.7 µg/mL (≈ 119 µM).
For `CC(C)Oc1ncnc2c1[nH]c1ccccc12`, the solubility (kinetic) was found to be 12.5 µg/mL (≈ 55 µM).
Under `COc1ccc2c(c1)C(=C(C#N)C#N)C(=O)N2CCc1ccccc1` stands 3.4 µg/mL (≈ 10.3 µM).
With `Cl.O=C(c1cc2ccccc2o1)N1CCN(Cc2ccccc2)CC1` the figure was 41.5 µg/mL; with `Cc1cc(NC(=O)c2ccno2)no1`, > 29 µg/mL; with `CC(C)(O)C(=O)NNC(=S)NCc1ccco1`, > 38.6 µg/mL.
Take `O=c1[nH]cccc1-c1nc2cc(Cl)ccc2n1Cc1ccccc1`: the kinetic solubility worked out at 5.7 µg/mL (≈ 17 µM).
As for `CC(=O)Nc1ccc(OCCC[n+]2cccc(C(=O)[O-])c2)cc1`, the solubility (kinetic) was found to be 39.6 µg/mL (≈ 126 µM). Against the preceding compound, the solubility kinetic is about 6.9-fold higher.
`O=C(/C=C/c1ccccc1)Nc1cccc(S(=O)(=O)Nc2ccccc2F)c1` showed a kinetic solubility of 1 µg/mL (≈ 2.52 µM).
Under `CN(C(=O)C1CCN(S(=O)(=O)c2ccccc2[N+](=O)[O-])CC1)C1CCCCC1` stands 52.9 µg/mL (≈ 129 µM); under `Oc1ccc(Cl)cc1CNc1cnc2ccccc2c1`, 1.2 µg/mL (≈ 4.21 µM).
With `O=C(NCCCN1CCOCC1)c1ccc(Cl)cc1[N+](=O)[O-]` the figure was 49.1 µg/mL (≈ 150 µM); with `NS(=O)(=O)c1cccc(NC(=O)CN2CCN(S(=O)(=O)c3ccc4c(c3)OCCO4)CC2)c1`, > 74.5 µg/mL.
With `CCOc1ncccc1C(=O)Nc1ccc2c(c1)OCCO2` the figure was > 45 µg/mL; with `O=C(CNC(=O)c1ccc(OC(F)F)cc1)NCC1CCCO1` (stereo not drawn), > 49.2 µg/mL.
`Cn1cc(C(=O)OCC(=O)Nc2ccccc2)c2ccccc21`: the solubility (kinetic) is 7.8 µg/mL (≈ 25.3 µM).
`Cc1ccc(-n2c3nc(=O)n(C)c(=O)c-3cc3ccccc32)cc1` registered a solubility (kinetic) of 12.3 µg/mL (≈ 38.8 µM).
The compound `NS(=O)(=O)c1ccc(NC(=O)c2cccc3ccccc23)cc1` yielded a kinetic solubility of 3.1 µg/mL (≈ 9.5 µM).
As to `C=CCOc1nc2sc(C)c(C)c2c(=O)n1-c1ccccc1`, the solubility (kinetic) came to 46.1 µg/mL (≈ 148 µM).
`CSc1ccc(CN2CCN(CC=C(C)C)C(CCO)C2)cc1` (stereo not drawn): the solubility (kinetic) was > 50.2 µg/mL.
Regarding `O=S(=O)(c1cccs1)N1CCC2(CC1)OCCO2`, the solubility (kinetic) was > 43.4 µg/mL.
With `Cn1ccc(C(=O)N/N=C/c2ccncc2)n1` the figure was > 34.4 µg/mL; with `COc1ccc2oc(C(=O)NC(C)c3ccccn3)c(C)c2c1` (stereo not drawn), > 46.6 µg/mL; with `Cn1cccc1CNC(=S)Nc1ccccc1Cl`, 36.4 µg/mL (≈ 130 µM).
As for `Cc1ccc(NC(=O)O/N=C/c2ccc(Br)cc2)cc1`, the solubility (kinetic) was determined as 1.4 µg/mL (≈ 4.2 µM).
In the case of `CCOc1ccc(NC(=O)Nc2ccon2)cc1`, the solubility (kinetic) was 36.9 µg/mL (≈ 149 µM).
Under `Cc1ccc(S(=O)(=O)NCCc2cccs2)cc1` stands > 42.2 µg/mL; under `CC1CC(C)CN(C(=O)COC(=O)c2nccnc2N)C1` (stereo not drawn), > 43.9 µg/mL; under `COc1ccccc1CC(=O)N1CCN(c2ccc(F)cc2)CC1`, > 49.3 µg/mL.
With `CO/N=C/c1c(-c2ccc(Cl)cc2)nc2cc(C)ccn12` the figure was 0.3 µg/mL (≈ 1 µM).
As for `O=C1NC2(CCCCCC2)C(=O)N1Cc1ccccc1F`, the kinetic solubility was determined as 26 µg/mL (≈ 89.6 µM).
Compound `CC(C)(C)C(=O)N1CCN(C(c2ccccc2)c2ccccc2)CC1` gave a solubility (kinetic) of 28.3 µg/mL (≈ 84.1 µM).
With `CC(=O)N(CCN(C)C)c1nc2cc3c(cc2s1)OCCO3.Cl` the figure was 47.6 µg/mL; with `S=C(NCCc1cccc(Cl)c1)NC1CCCCC1`, 10.5 µg/mL (≈ 35.4 µM).
Under `NS(=O)(=O)c1cc(C(=O)NCCc2ccccn2)ccc1Cl` stands 49.1 µg/mL (≈ 144 µM); under `Cc1cc(NC(=O)c2ccco2)sc1C`, > 33.2 µg/mL; under `O=[N+]([O-])c1ccc(N2CCCC2)nc1`, 26.8 µg/mL (≈ 139 µM).
Regarding `Cc1ccc(-c2nc3ncccc3o2)cc1NC(=O)C(C)(C)C`, the solubility (kinetic) was 44.4 µg/mL (≈ 144 µM).
With `O=C1/C(=C/c2ccncc2)SC(=S)N1Cc1ccccc1`, the kinetic solubility is 1.7 µg/mL (≈ 5.44 µM).
With `CN(C)/C=C/C(=O)c1cccc(C(F)(F)F)c1` the figure was > 36.5 µg/mL.
Consider `O=C(c1ccc(Cl)cc1)N1CCOc2ccccc21`, for which the kinetic solubility amounted to 40.3 µg/mL (≈ 147 µM).
Turning to `NC(=O)NC(CC(=O)N1CCc2ccccc2C1)c1ccc(Cl)cc1` (stereo not drawn), the kinetic solubility was 49.9 µg/mL (≈ 139 µM).
In turn, `O=C(COc1ccccc1[N+](=O)[O-])Nc1ccc2oc(=O)ccc2c1` had a solubility (kinetic) of 0.5 µg/mL (≈ 1.47 µM).
With `COCc1cc(C)nc(SCc2ccc(Br)cc2)c1C#N` the figure was < 0.4 µg/mL; with `CC1(C)CC(=O)C2=C(C1)NC(=O)NC2c1ccc(Cl)cc1` (stereo not drawn), 6.9 µg/mL (≈ 22.6 µM).
Compound `Cc1cccnc1NC(=O)c1sc2ccccc2c1Cl` yielded a solubility (kinetic) of 3 µg/mL (≈ 9.91 µM). Against the preceding compound, the solubility kinetic is about 2.3-fold lower.
Turning to `COc1ccc2nc(SCC(=O)NC3CCCCC3)[nH]c2c1`, the kinetic solubility is > 47.9 µg/mL.
Under `O=C(O)c1cccnc1SC1CC(=O)N(c2ccccc2)C1=O` (stereo not drawn) stands > 49.3 µg/mL; under `O=C(Nc1ccncc1)Nc1ccc(F)cc1`, 29.9 µg/mL (≈ 129 µM).
Under `Cc1ccc(NS(=O)(=O)c2ccc(C(C)C)cc2)cc1S(=O)(=O)N1CCOCC1` stands 27.4 µg/mL (≈ 62.5 µM); under `COc1ccc(C(=O)Cn2cnc3ccccc3c2=O)c(OC)c1`, 41.7 µg/mL (≈ 129 µM).
Under `CN(CC(=O)Nc1ccc(N2CCOCC2)cc1)C(=O)c1ccc(CS(C)(=O)=O)cc1` stands > 66.8 µg/mL; under `Cc1cc(Br)c(NC(=O)COC(=O)CC2CC3CCC2C3)c(Br)c1` (stereo not drawn), 7.7 µg/mL (≈ 16.8 µM).
On to `CN1/C(=C\C=O)C(C)(C)c2ccccc21`, for which the solubility (kinetic) was > 30.2 µg/mL.
`CN(C)S(=O)(=O)c1ccc(NC(=S)NC(=O)C2CCC2)cc1`: the solubility (kinetic) turned out to be 12.5 µg/mL (≈ 36.6 µM).
With `c1ccc(N2CCN(Cc3cn4ccccc4n3)CC2)cc1` the figure was 40.8 µg/mL (≈ 140 µM); with `COc1cccc(NC(=O)COC(=O)Cc2ccc(Cl)cc2)c1`, > 50.1 µg/mL.
Under `S=C(Nc1cccnc1)N1CCCCC1` stands > 33.2 µg/mL; under `COc1ccccc1OCCC(=O)NCc1ccc2c(c1)OCO2`, 45.1 µg/mL (≈ 137 µM); under `CC(=O)c1ccc(NC(=S)N2CCCCCC2)cc1`, > 41.5 µg/mL.
In the case of `CC1C(=O)Nc2ccccc2N1C(=O)c1cccc(C(F)(F)F)c1` (stereo not drawn), the kinetic solubility was > 50.1 µg/mL.
With `N/C(CC1CC1(Cl)Cl)=N\OC(=O)c1ccccc1` (stereo not drawn), the kinetic solubility is > 43.1 µg/mL.
With `CN(n1cnc2ccccc2c1=O)S(C)(=O)=O` the figure was > 38 µg/mL; with `O=C(COC(=O)c1ccc(F)cc1)NCC1CCCCC1`, 9.4 µg/mL (≈ 32 µM); with `Cc1nc2sc(C(N)=O)c(N)c2c(C)c1CC(=O)c1ccccc1`, 1.7 µg/mL (≈ 5.01 µM).
Regarding `COCCn1c(SCC(=O)Nc2cccnc2Cl)nc2ccccc21`, the solubility (kinetic) was determined as 7.4 µg/mL (≈ 19.6 µM).
With `CCOC(=O)N1CCN(CC(c2ccccc2)c2ccccc2)CC1` the figure was 25.6 µg/mL (≈ 75.6 µM); with `CCNc1cc(N2CCN(C)CC2)ccc1[N+](=O)[O-]`, > 39.6 µg/mL; with `Cc1[nH]c2c(Cl)cccc2c(=O)c1CN1CCCCCC1`, > 45.7 µg/mL.
In the case of `Cc1ccc(C(=O)C(C)OC(=O)Cc2c[nH]c3ccccc23)cc1` (stereo not drawn), the kinetic solubility came out at 7.2 µg/mL (≈ 22.4 µM).
Consider `COc1ccc(C(=O)NCCCSc2ccccc2)cc1F`, for which the kinetic solubility came to 2.5 µg/mL (≈ 7.83 µM).
For the compound `Cc1[nH]c(C)c(C(=O)/C=C/c2ccc([N+](=O)[O-])cc2)c1C`, the kinetic solubility came out at 2.9 µg/mL (≈ 10.2 µM).
On to `Cc1c2c(n3c(nc4ccccc43)c1C#N)N(CCCN(C)C)CC2`, for which the kinetic solubility is > 50 µg/mL.
With `O=C(Cc1cccs1)NCc1cccc(C(F)(F)F)c1` the figure was 42.1 µg/mL (≈ 141 µM); with `COc1cc([N+](=O)[O-])ccc1NC(=O)NCc1ccccn1`, > 45.3 µg/mL; with `Cc1cc(NCc2ccccc2)c2ccccc2n1.Cl`, > 42.7 µg/mL.
With `Nc1ccc2c(c1)C(=O)c1ccccc1-2` the figure was 27.9 µg/mL (≈ 143 µM).
The compound `CCn1c(C)c(C(=O)c2ccccc2)c(C#N)c1C(=O)O` gave a solubility (kinetic) of 36.6 µg/mL (≈ 130 µM).
With `CCOC(=O)N1CCN(C(c2cccnc2)c2ccc3cccnc3c2O)CC1` (stereo not drawn) the figure was 28 µg/mL (≈ 71.3 µM); with `Cc1cccc(C)c1OCCCCN1CCCCC1.O=C(O)C(=O)O`, 45.4 µg/mL.
Under `O=C(NCc1ccc2c(c1)CCO2)Nc1ccccc1` stands 8.7 µg/mL (≈ 32.4 µM).
